Broadly, the melting point is the temperature, or range, at which the solid turns liquid.

Consider `CC(=O)Sc1cc(-c2ccc(C(F)(F)F)n(C)c2=O)c(F)cc1Cl` [Compound No. 1-85, 3-(5-acetylthio-4-chloro-2-fluorophenyl)-1-methyl-6-trifluoromethyl-2(1H)-pyridone], for which the melting point lay in the range of 91 to 92 °C.
The figure for `Cn1c(C(F)(F)F)ccc(-c2cc([N+](=O)[O-])c(F)cc2F)c1=O` [Compound No. 1-100, 3-(2,4-difluoro-5-nitrophenyl)-1-methyl-6-trifluoromethyl-2(1H)-pyridone] is 115 to 118 °C; for `Cn1c(C(F)(F)F)ccc(-c2cc3[nH]c(=O)oc3cc2Cl)c1=O` [Compound No. 3-20, 3-(6-chlorobenzoxazolin-2-on-5-yl)-1-methyl-6-trifluoromethyl-2(1H)-pyridone] it is 263 to 265 °C.
In turn, `CSCc1cc2c(-c3ccc(C(F)(F)F)n(C)c3=O)c(F)cc(Cl)c2o1` [Compound No. 4-44, 3-(7-chloro-5-fluoro-2-methylthiomethylbenzofuran-4-yl)-1-methyl-6-trifluoromethyl-2-(1H)-pyridone] showed a melting point of 169 to 171 °C.
For `CCC(c1cc2c(-c3ccc(C(F)(F)F)n(C)c3=O)c(F)cc(Cl)c2o1)[S+](C)[O-]` (centres unmarked) [Compound No. 4-57, 3-[7-chloro-5-fluoro-2-(1-methylsulfinylpropyl)benzofuran-4-yl]-1-methyl-6-trifluoromethyl-2-(1H)-pyridone] the value was 125 to 127 °C.
For `CCC(c1cc2c(-c3ccc(C(F)(F)F)n(C)c3=O)c(F)cc(Cl)c2o1)S(C)(=O)=O` (centres unmarked) [Compound No. 4-58, 3-[7-chloro-5-fluoro-2-(1-methylsulfonylpropyl)benzofuran-4-yl]-1-methyl-6-trifluoromethyl-2-(1H)-pyridone] the value was 146 to 148 °C; for `Cn1cc(-c2ccc(Cl)cc2Cl)c(=O)cc1C(F)(F)F` [Compound No. 6-3, 5-(2,4-dichlorophenyl)-1-methyl-2-trifluoromethyl-4(1H)-pyridone], 205 to 206 °C; for `CCOC(=O)c1c(C(F)(F)F)n(C)cc(-c2cc(OC(C)C)c(Cl)cc2F)c1=O` [Compound No. 6-42, 5-(4-chloro-2-fluoro-5-isopropoxyphenyl)-3-ethoxycarbonyl-1-methyl-2-trifluoromethyl-4(1H)-pyridone], 170 to 172 °C.

For the origin of these results see patent US6472348B1, “Pyridone derivatives and herbicides” (Kumiai Chemical Industry Co., Ltd., priority 1996, dated 2002).
